Results reported in patent US5304470A, “Process for the enzymatic preparation of protected and unprotected di- and oligopeptides in aqueous solutions” (Forschungszentrum Juelich GmbH, priority 1991, dated 1994).

Excerpt: (§1) The ethyl ester of tyrosine was reacted.
as §1, §1
CCOC(=O)C(CCCNC(=N)N)NC(=O)C=CC(=O)O (stereo not drawn) [Mal-Arg-OEt] showed a solubility in water greater than 1000 mM.
With CCOC(=O)C(Cc1ccccc1)NC(=O)C=CC(=O)O (stereo not drawn) [Mal-Phe-OEt] the solubility in water was greater than 700 mM.
With CCOC(=O)[C@H](Cc1c[nH]c2ccccc12)NC(=O)/C=C\C(=O)O [Mal-Trp-OEt] the solubility in water was greater than 700 mM.
CCOC(=O)[C@H](Cc1ccc(O)cc1)NC(=O)/C=C\C(=O)O [Mal-Tyr-OEt] gave a solubility in water greater than 600 mM.
